Data as given in US11459546B2, “Method for producing somatic cell, somatic cell, and composition” (Kyoto Prefectural Public University Corporation, priority 2016, dated 2022).

Legend:
[1] = tested on: human fibroblasts; assay: Induction of chondrocyte from human fibroblast, Alcian Blue staining (Example D); format: cell-based; conditions: from comparison of combinations of Table 7, FIG. 15
Experimental: As materials, human fibroblasts were purchased from DS Pharma Biomedical Co., Ltd. The fibroblasts were derived from a skin of a human.
The human fibroblasts were seeded on 35 mm dishes at a rate of 5×10^4 cells per a dish, and cultured in DMEM medium (Gibco) to which 10% fetal bovine serum (FBS), 100 U/ml penicillin and 100 μg/ml streptomycin under a condition at 37° C. and 5% CO2 were added to become confluent. Note that the DMEM refers to a Dulbecco's Modified Eagle Medium.
The medium in the dish containing the human fibroblasts was exchanged to a DMEM (Thermo Fisher Scientific, Inc.) containing Insulin-Transferrin-Selenium (Thermo Fisher Scientific, Inc., final concentration: 1%), ascorbic acid-2-phosphate (Wako Pure Chemical Industries, Ltd., final concentration: 50 μg/ml), dexamethasone (Wako Pure Chemical Industries, Ltd., final concentration: 0.1 μM), TGF-β3 (PeproTech, Inc., final concentration: 10 ng/ml), L-proline (Nacalai Tesque, final concentration: 40 μg/ml), Antibiotic-Antimycotic (Thermo Fisher Scientific, Inc., final concentration: 1×), and a low molecular weight compound added according to Table 1. Subsequently, the cells were cultured under the condition at 37° C. and 5% CO2 while exchanging the medium to the medium having the same composition every 3 days. The details of the compounds listed in Table 7 are as aforementioned in the present specification.
As a result of culturing human fibroblasts according to Example (2), chondrocyte-like cells appeared 7 days after the onset of culturing. Twenty-one days after the onset of culturing, the cells were subjected to Alcian Blue staining according to a conventional method, to evaluate the presence or absence of acid polysaccharides which are a cartilage matrix. In the figure, the upper pictures show the results of Alcian Blue staining, and the lower pictures present phase-contrast microscopic images in the same visual fields as of the upper pictures.

[2] = tested on: human fibroblasts; assay: Induction of osteoblast from human fibroblast, von Kossa staining (Example C); format: cell-based; conditions: from comparison of combinations of Table 6, FIG. 14
Experimental: As materials, human fibroblasts were purchased from DS Pharma Biomedical Co., Ltd. The fibroblasts were derived from a skin of a human. The human fibroblasts were seeded on 35 mm dishes at a rate of 5×10^4 cells per a dish, and cultured in DMEM medium (Gibco) to which 10% fetal bovine serum (FBS), 100 U/ml penicillin and 100 μg/ml streptomycin under a condition at 37° C. and 5% CO2 were added to become confluent. Note that the DMEM refers to a Dulbecco's Modified Eagle Medium. The medium in the dish containing the human fibroblasts was exchanged to a RPMI1640 with L-Glutamine and Phenol Red (Wako Pure Chemical Industries, Ltd.) containing an osteoblast-inducer reagent (Takara Bio Inc.), and a low molecular weight compound added according to Table 1. Subsequently, the cells were cultured under the condition at 37° C. and 5% CO2 while exchanging the medium to the medium having the same composition every 3 days. The details of the compounds listed in Table 6 are as aforementioned in the present specification. As a result of culturing human fibroblasts according to the above (2), osteoblast-like cells appeared 7 days after the onset of culturing. Twenty-one days after the onset of culturing, the cells were subjected to von Kossa staining according to a conventional method, to evaluate the presence or absence of calcium deposition. In the figure, the upper pictures show the results of von Kossa staining, and the lower pictures present phase-contrast microscopic images in the same visual fields as of the upper pictures.

[3] = tested on: β adrenergic receptor signaling pathway in compound-induced brown adipocytes; assay: Isoproterenol or forskolin treatment of compound-induced brown adipocytes, mRNA by QRT-PCR; format: cell-based, human; conditions: for expression of Cited1 after treatment / expression of Ckmt1 after treatment: 3 or 6 hours, FIGS. 12 C and D
Experimental: For the purpose of quantifying gene expression, the whole RNA was extracted from the fibroblasts treated with each compound, using the RNeasy Mini kit (QIAGEN N.V). As a control, a fibroblast was cultured in parallel, in the adipocyte medium. The cells were treated with 0.1 μM, 1 μM and 10 μM isoproterenol or forskolin for 3 hours or 6 hours, and then the whole RNA was extracted from the brown adipocytes induced with the compound and the control cell. The whole RNA was reversely transferred with ReverTraAce® PCR RT Master Mix with gDNA Remover (TOYOBO CO., LTD.), and then subjected to a real-time PCR analysis using Power SYBR Green PCR Master Mix (Thermo Fisher Scientific, Inc.). For one standard, 3 reactions were carried out under the following condition: 40 cycles of reactions at 95° C. for 10 minutes, at 95° C. for 15 seconds, and at 60° C. for 60 seconds. All results were standardized by the amount of the Tbp mRNA.
Thermogenesis through the Ucp1 is regulated through the sympathetic nervous system and the […] receptor signaling pathway in the brown adipocytes. For the purpose of evaluating the thermogenetic ability in the […] induced with the compounds, the brown adipocytes were treated with isoproterenols (β adrenergic receptor agonist) at 3 different concentrations for 3 hours or 6 hours, and then the Ucp1 mRNA was quantified (FIG. 12 A).

[4] = tested on: human fibroblasts; assay: Induction of cardiomyocyte from human fibroblast, cTnT immunostaining (Example F); format: cell-based; conditions: from comparison of combinations of Table 9, FIG. 17
Experimental: (§1) As materials, human fibroblasts were purchased from DS Pharma Biomedical Co., Ltd. The fibroblasts were derived from a skin of a human. The human fibroblasts were seeded on 35 mm dishes at a rate of 8×10^4 cells per a dish, and cultured in DMEM high glucose medium (Gibco) to which 10% fetal bovine serum (FBS), 100 U/ml penicillin and 100 μg/ml streptomycin under a condition at 37° C. and 5% CO2 were added for 2 days. Note that the DMEM refers to a Dulbecco's Modified Eagle Medium. […] Subsequently, the cells were cultured under the condition at 37° C. and 5% CO2 while exchanging the medium to the medium having the same composition every 3 days. The details of the compounds listed in Table 9 are as aforementioned in the present specification. As a result of culturing the human fibroblasts in accordance with the above (2), shrinking or beating single cells or small cell masses were recognized 8 days after the onset of culturing. Twenty-one or more days after the onset of culturing, a large number of shrinking or beating cardiomyocyte-like masses were observed. Twenty-one days after the onset of culturing, the cells were immobilized with 2% paraformaldehyde, and then immunostained. For staining, an anti-cTnT antibody (ab10214, Abcam PLC; diluted 200-fold) was used. […] The lower pictures show phase-contrast microscopic images in the same visual fields as of the upper pictures.

[5] = tested on: human fibroblasts; assay: Induction of brown adipocyte from human fibroblast, UCP1 immunostaining (Example A); format: cell-based; conditions: from comparison of combinations of Table 1, FIG. 1
Experimental: as §1, with “(Wako Pure Chemical Industries, Ltd.)” for “(Gibco)”, “1” for “9”, “adipocyte-like” for “shrinking or beating single”, “appeared 6” for “or small cell masses were recognized 8”, “culturing.” for “culturing. Twenty-one or more days after the onset of culturing, a large number of shrinking or beating cardiomyocyte-like masses were observed.”, “immunostained.” for “immunostained. For staining, an anti-cTnT antibody (ab10214, Abcam PLC; diluted 200-fold) was used.”

[6] = tested on: human fibroblasts; assay: Induction of neural cell from human fibroblast, βIII-tubulin immunostaining (Example E); format: cell-based; conditions: from comparison of combinations of Table 8, FIG. 16
Experimental: As materials, human fibroblasts were purchased from DS Pharma Biomedical Co., Ltd. The fibroblasts were derived from a skin of a human. The human fibroblasts were seeded on 35 mm dishes at a rate of 8×10^4 cells per a dish, and cultured in DMEM high glucose medium (Wako Pure Chemical Industries, Ltd.) to which 10% fetal bovine serum (FBS), 100 U/ml penicillin and 100 μg/ml streptomycin under a condition at 37° C. and 5% CO2 were added for 2 days. Note that the DMEM refers to a Dulbecco's Modified Eagle Medium. […] Subsequently, the cells were cultured under the condition at 37° C. and 5% CO2 while exchanging the medium to the medium having the same composition every 3 days. The details of the compounds listed in Table 8 are as aforementioned in the present specification. As a result of culturing the human fibroblasts in accordance with the above (2), nerve-like projection structures were recognized 5 days after the onset of culturing. Fourteen days after the onset of culturing, the cells were immobilized with 2% paraformaldehyde, and then immunostained. For staining, an anti-βIII-tubulin antibody (MMS-435P, Covance; diluted 1000-fold) was used. […] The lower pictures show phase-contrast microscopic images in the same visual fields as of the upper pictures.

Compound	role of the component for differentiation of the chondrocytes [1]	role of the component for differentiation of the osteoblasts [2]	role of the component for differentiation into cardiomyocytes [4]	further results
Cc1c[nH]c(-c2cnc(NCCNc3ccc(C#N)cn3)nc2-c2ccc(Cl)cc2Cl)n1 [CHIR99021]	important	important		
c1ccc2c(-c3cnn4cc(-c5ccc(N6CCNCC6)cc5)cnc34)ccnc2c1 [LDN193189]	important	important		
C=C[C@@]1(C)CC(=O)[C@]2(O)[C@@]3(C)[C@@H](O)CCC(C)(C)[C@@H]3[C@H](O)[C@H](OC(C)=O)[C@@]2(C)O1 [forskolin, Forskolin]	important	important	important	Ucp1 expression, cells treated for 6 hours versus 3 hours ([3]; 0.1, 1 or 10 μM, FIG. 12 B): more enhanced; expression of Cited1 after treatment [3]: no significant change; expression of Ckmt1 after treatment [3]: no significant change
CC(C)NCC(O)c1ccc(O)c(O)c1 (stereo not drawn) [isoproterenol, Isoproterenol]				Ucp1 mRNA, 3-hour treatment ([3]; 0.1, 1 or 10 μM, versus untreated cells, FIG. 12): slightly increased; expression of Cited1 after treatment [3]: no significant change; expression of Ckmt1 after treatment [3]: no significant change
c1cc(-c2cnn3cc(-c4ccc(OCCN5CCCCC5)cc4)cnc23)ccn1 [dorsomorphin, Dorsomorphin]	not contained		important	role of the component for differentiation into brown adipocytes [5]: preferable; role of the component for differentiation into neural cells [6]: important
Cc1cccc(-c2n[nH]cc2-c2ccc3ncccc3n2)n1 [Repsox]			important	
NC(=O)c1ccc(-c2nc(-c3ccc4c(c3)OCO4)c(-c3ccccn3)[nH]2)cc1 [SB431542]	important	important		role of the component for differentiation into brown adipocytes [5]: preferable
O=C(NOC[C@H](O)CO)c1ccc(F)c(F)c1Nc1ccc(I)cc1F [PD0325901]	not contained	should not be added	important	
